System: T1, GABAA receptor (GABAAR), native, cultured rat hippocampal neurons
T1 construct: gene Gabra1; native receptors of unresolved subunit composition in primary cultured hippocampal neurons (12-16 DIV for firing recordings)
Assay: whole-cell patch clamp, peak current
Format: cell-based
Settings: direct activation without GABA; holding potential −50 mV; pH 7.3

Molecule CC(C)[C@@H]1CC[C@@H](C)C[C@H]1O [menthol] has an EC50 of 490 µM.

Source: publication PMC2560999, “A-Type GABA Receptor as a Central Target of TRPM8 Agonist Menthol” (PLoS ONE, 2008)
